Results from article PMC5510229, “BCAT1 controls metabolic reprogramming in activated human macrophages and is associated with inflammatory diseases” (Nature Communications, 2017).

Legend:
[1] = tested on: human monocyte-derived macrophages (hMDMs); experiment: qRT-PCR / Western blot of activation markers in hMDMs; format: cell-based
[2] = tested on: human monocyte-derived macrophages (hMDMs); experiment: Itaconate and citrate measurement by GC/MS in hMDMs; format: cell-based
Procedure: Figure 1 BCAT1 expression and inhibition in human macrophages. […] (b) Chemical structure of ERG240 and leucine. (c) Enzymatic activity of recombinant human BCAT1 and BCAT2 in presence of ERG240. (d) Relative expression of IRG1, HIF1A and IL1B measured by qRT-PCR in control, ERG240-treated (20 mM, 3 h), LPS treated (100 ng ml^−1, 3 h), and LPS+ERG240 treated (LPS, 100 ng ml^−1; ERG240, 20 mM for 3 h) hMDMs. ns, non-significant. All expression values are normalized to those obtained for HPRT gene expression. n=3 healthy donor hMDMs were used in each group. […]
For itaconate, cells pellets containing 1.5 × 10^6 hMDMs were quenched with 400 μl of methanol, previously chilled at −20 °C. […] After a brief centrifugation, derivatized metabolites were transferred into clean GC/MS vials and analysed for the presence of itaconic acid (itaconate) using a 7890A GC System (Agilent Technologies) equipped with an Agilent J&W DB-5ms column (30 m, 0.25 mm, 0.25 μm), connected to an 5975C Triple-Axis MS Detector (Agilent Technologies) and outfitted with an autosampler. […] The amount of itaconate present in the sample was determined after peak integration. […] The GC/MS was performed by Biocrates (BIOCRATES Life Sciences AG, Innsbruck, Austria) and the citrate quantification was performed using their commercially available Kit plates, according to the manufacturer’s instructions. […]

[3] = LPS 100 ng/ml + ERG240 20 mM, 3 h, qRT-PCR

In the case of `CC(=O)C(C)CCC(=O)O` (stereo not drawn) [ERG240], the NOS2 expression levels [1, 3] is reported as “significantly reduced”, the TNF expression levels [1, 3] is reported as “significantly reduced” and the “IL-1β levels, long-term exposure” value ([1]; LPS + ERG240 20 mM, 24 h, Western blot) is reported as “reduced IL-1β levels”. The “IRG1 expression in TNF-stimulated human macrophages” value ([1]; TNF 2 ng/ml, ERG240 20 mM, 8 h) was “comparable inhibitory effect”, the “citrate levels by GC/MS” value ([2]; LPS 3 h 100 ng/ml + ERG240 vs LPS) was “further significantly increased” and the “itaconate levels measured by GC/MS” value ([2]; LPS 8 h 100 ng ml^−1, ERG240 20 mM) was “decreased itaconate levels”.
